The text below walks through data of patent US20210308120A1, “Use of Amitriptyline for Blocking Brain Hemichannels and Method for Potentiating its Effect in Vivo” (THERANEXUS, priority 2015, published 2021).

For data set [1] the following is noted: rats; cited from earlier work.
For a further data set, the system named is REM sleep in mice. Briefly: Quantification of sleep-wake episodes (REM sleep), EEG/EMG. As to conditions: amitriptyline 1 mg/kg i.p., combined or not with mefloquine 1 mg/kg i.p.; vs control. In kind it is in vivo, mouse. The text has this: Mice were implanted with cortical and muscle electrodes to record the electroencephalogram (EEG) and electromyogram (EMG) and to monitor the sleep-wake cycle. This implantation allows stable and long-lasting polysomnographic recordings (Parmentier et al, 2002).
Polysomnographic records were visually scored by 10-s epochs for wakefulness (W), slow wave sleep (SWS), and paradoxical or rapid eye movement (REM) sleep.
Mice were registered by electroencephalogram to quantify sleep-wake episodes.

Data set [2] in a line: Pharmacokinetic of amitriptyline in brain and serum of SN-CCI rats. The following applies: amitriptyline 12 mg/kg osmotic pump ± mefloquine 0.5 mg/kg i.p. bidaily, 14 days. It counts as in vivo, rat. The protocol:
Blood was collected and kept 1 hour at 4° C. Then serum and brain were collected. Amitriptyline was quantified by HPLC and mass spectrometry (Crepta laboratory).
(§1) Osmotic mini-pumps (Alzet, model 2ML2), delivering for the following 14 days amitriptyline or vehicle were subcutaneously implanted.
After 14-day treatment, so 28 days after surgery, rats were sacrificed and brain as well as serum samples were collected to quantify amitriptyline.

A further data set deals with T1, Cx43 hemichannels (Mus musculus, UniProt P23242).
T1 construct: Astrocyte cultures were prepared from cortex of rats and mice as previously described; endogenous in cells; host or cells: secondary cultures of mouse cortical astrocytes, LPS-treated
Briefly: Hemichannel activity by ethidium bromide uptake in LPS-treated mouse cortical astrocyte cultures. In kind it is cell-based. As to conditions: LPS 1 μg/mL and amitriptyline 5, 10 and 20 μM, 24 hours. Here is the method:
Astrocyte cultures were prepared from cortex of rats and mice as previously described (Meme et al., 2006). Cells were seeded on polyornithine coated 35 mm dishes (5×10^5 cells/dish) or into 100-mm diameter plastic dishes at the density of 3×10^6 cells/dish. After 8-10 days, when cells grown into 35 mm in diameter plastic culture dishes have reached confluence, 1 μM of cytosine-arabinoside was added to the culture medium. In addition, when cells grown into 100 mm plastic culture dishes reached confluence, they were harvested with trypsin-EDTA. Then, cells were re-plated (2×10^5 cells per well), as secondary cultures, on glass coverslips placed inside 24-round-well plate. Finally, they were grown to confluence and cytosine-arabinoside was added. Medium was changed twice a week for all cells until the experiments were carried out. Hemichannel activity was evaluated in secondary cultures of cortical astrocytes by Ethidium Bromide (EtBr) uptake as already published (Orellana et al, 2011). 24 h before experiment, cells were pretreated or not with 1 μg/ml LPS known to open Cx43 HeC. The day of experiment, cells were first preincubated in HEPES buffer solution. Then, cells were exposed to 5 μM EtBr for 10 min at room temperature. Cells were then washed with the same buffer before fixation with 4% paraformaldehyde in PBS. Fixed cells were examined at 40× with a confocal laser-scanning microscope. Stacks of 10 consecutive confocal images taken at 0.49 μm intervals were acquired. For each experimental condition, 6 images were captured and then analyzed with Image J program (NIH software). LPS was added to mouse cortical astrocytic cultures during 24 hours to open Cx43 hemichannels and amitriptyline was also added during the same time to evaluate its action on hemichannel activity, quantified by cell uptake of ethidium bromide.

Data set [3] relates to SN-CCI rats (neuropathic pain, hyperalgesia). Put plainly: Randall & Selitto test in SN-CCI rats, repeated administration every 150 minutes. It counts as in vivo, rat. The following applies: amitriptyline alone i.p. every 150 min; at 90 and 240 min. The protocol:
(§2) One week after their arrival, rats were anesthetized with sodium pentobarbital before exposing the common sciatic nerve. As described in Bennett's article, four chromic catgut (5-0) ligations were tied loosely proximally to the sciatic trifurcation (Bennett and Xie, 1988).
(§3) All behavioral assessments were conducted between 9 a.m. and 5 p.m. in a quiet room. An increasing pressure was applied to the right hind paw of SN-CCI (Sciatic Nerve-Chronic Constriction Injury) rat to evaluate hyperalgesia-like behavior (Viguier and al, 2013). Values correspond to the pressure threshold producing the paw withdrawal and then the vocalization of the rat.

For data set [4] the test system is unchanged. Briefly: Randall & Selitto test in SN-CCI rats, chronic 14-day administration. In kind it is in vivo, rat. As to conditions: amitriptyline 12 mg/kg s.c. osmotic pump; mefloquine 0.5 mg/kg i.p. twice a day; 14 days; vs saline.
From the text: Data are the means±S.E.M. of n=8-14 rats.
Data are the means±S.E.M. of n=8-14 rats. *p<0.05, **p<0.01, ***p<0.001 as compared with “saline+saline” group at the same time, ≠p<0.05 as compared between amitriptyline groups, two-way ANOVA, Bonferroni test.
as §2, §3, §1
a) Rats were ligated on sciatic nerve and then tested with the Randall & Selitto test 14 days after surgery, to evaluate hyperalgesia quantified as pressure threshold. Neuropathic rats, characterized by a decrease of pressure threshold after surgery, were then treated during 14 days and tested by the Randall & Selitto test during this period.

For a further data set, the system named is mice subjected to FST. Briefly: Forced Swim Test (FST). It counts as in vivo, mouse. As to conditions: 2nd 3-min period. Here is the method:
The FST is the most used rodent model for screening antidepressants (Porsolt et al, 1977). Mice were dropped individually in a glass cylinder (25 cm high, 9 cm diameter) filled with 10 cm 25° C. water. The experiment was recorded with a camcorder, placed in front of the glass cylinders. Video were scored at a later time by an experimenter blind to the treatments. The indices of depression-related behavior are the immobility time, the swimming time and the climbing time.
FST test evaluates the despair behavior which is commonly reversed by antidepressants. During FST, the swimming time of each mouse was measured on each 1-min period, on 1st and 2nd 3-min periods.

T1 sequence (P23242 whole entry): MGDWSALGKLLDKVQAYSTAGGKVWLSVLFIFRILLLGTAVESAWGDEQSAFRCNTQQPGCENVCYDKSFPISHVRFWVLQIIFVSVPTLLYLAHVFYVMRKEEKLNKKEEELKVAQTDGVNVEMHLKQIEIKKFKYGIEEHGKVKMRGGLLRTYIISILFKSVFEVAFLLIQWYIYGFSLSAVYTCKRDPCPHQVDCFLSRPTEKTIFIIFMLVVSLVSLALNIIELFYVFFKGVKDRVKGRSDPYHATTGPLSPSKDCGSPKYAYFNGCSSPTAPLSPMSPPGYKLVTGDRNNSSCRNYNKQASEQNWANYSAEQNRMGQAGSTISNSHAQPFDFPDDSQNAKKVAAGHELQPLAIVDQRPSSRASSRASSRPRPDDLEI

Turning to `CN(C)CCC=C1c2ccccc2CCc2ccccc21` [amitriptyline, 3-(5,6-dihydrodibenzo[2,1-b:2′,1′-f][7]annulen-11-ylidene)-N,N-dimethylpropan-1-amine], the Half-life in data set [1] was 2.5 h. In addition, the REM sleep duration entry in the data set on REM sleep in mice was “did not induce significant reduction on its own”. Also, in data set [2], the “Amitriptyline concentration in brain, with vs without mefloquine” value is “No changes”; the “Amitriptyline concentration in serum, with vs without mefloquine” value was “No changes”; the “Amitriptyline ratio brain/plasma, with vs without mefloquine” value is given as “no significant difference”. For the same molecule, the “HC activity (ethidium bromide uptake) after LPS-induced opening” value on Cx43 hemichannels is on record as “reversed this increase at the three tested doses”. Also, the Paw withdrawal threshold entry in data set [3] is given as “did not induce significant effect on its own”. In addition, in data set [4], the “Paw withdrawal threshold (pressure)” value was “significant increase of the paw withdrawal threshold at day 14” and the “Vocalization threshold (pressure)” value is reported as “increase of the vocalization threshold”. In the data set on mice subjected to FST (amitriptyline 12 mg/kg per os alone), the Swimming time result is listed as “not significant”. Also, the Swimming time result in the data set with mice subjected to FST (amitriptyline 24 mg/kg per os, single) is listed as “significant increase of the swimming time”.
